These results are taken from patent US8569495B2, “Anthelmintic agents and their use” (Intervet International B.V., priority 2007, dated 2013).

Experiment [1] concerns Haemonchus contortus. Nature of the experiment: Efficacy against Haemonchus contortus in sheep. In kind it is in vivo. The following applies: oral, single treatment 35 days after infection, necropsy 7 days after treatment. The protocol:
Anthelmintic effects of compounds of this invention were tested in vivo using Haemonchus contortus in sheep. The sheep were orally infected with approximately 5,000 third-stage larvae of Haemonchus contortus. Thirty-five days after infection, the sheep in the treatment groups were treated once orally or subcutaneously at a dose of 2, 5, 10, and/or 50 mg per kg bodyweight. Seven days after treatment, the sheep were necropsied, and the worm burden in the abomasum was determined. The efficacy was defined as the reduction of the mean worm count in the infected sheep of the treatment groups in comparison to the infected sheep in the untreated negative control group.

Experiment [2] has as its system Haemonchus contortus (L4), isolate resistant to benzimidazoles and ivermectin and anthelmintic-sensitive isolate. Nature of the experiment: In vitro resistance-breaking activity against Haemonchus contortus L4, resistant versus sensitive isolate (MEC). The settings on record: isolate resistant to benzimidazoles and ivermectin vs sensitive isolate. The protocol: Anthelmintic resistance-breaking effects of compounds of this invention were tested in vitro using larval stage 4 (“L4”) of the parasitic nematode species Haemonchus contortus (Barber's pole worm in ruminants). One isolate of Haemonchus contortus with a resistance to benzimidazoles and ivermectin was tested in comparison to the anthelmintic-sensitive isolate of Haemonchus contortus. When conducting these experiments, various concentrations of the compounds were incubated in 96-well microtiter plates. Parasites were then distributed at 20 larvae per well. The anthelmintic effects were classified by microscopic examination. The microscopic examination included assessing mortality, damage, motility, progression of development, and neutral red uptake by the larvae in comparison to a DMSO-control and standard anthelmintics. The anthelmintic effects were defined by the minimum effective concentration (“MEC”).

The subject of experiment [3] is Haemonchus contortus. Nature of the experiment: Efficacy against Haemonchus contortus in jirds. In kind it is in vivo, jirds (Meriones unguiculatus). The following applies: single treatment 10 days after infection, necropsy 3 days after treatment. The protocol:
Anthelmintic effects of compounds of this invention were tested in vivo using Haemonchus contuortus in jirds (Meriones unguiculatus). The jirds were orally infected with approximately 750-3,000 third-stage larvae of Haemonchus contortus. Ten days after infection, the jirds in the treatment groups were treated once orally or subcutaneously at a dose of 2, 10, and/or 50 mg per kg bodyweight. Three days after treatment, the jirds were necropsied, and the larvae burden in the stomach was determined. The efficacy was defined as the reduction of the mean larvae count in the jirds of the treatment groups in comparison to the infected jirds in the untreated negative control group. All the compounds of this invention tested using this protocol reduced the Haemonchus contortus count in both the oral and subcutaneous experiments.

Experiment [4] concerns Trichostrongylus colubriformis. Nature of the experiment: Efficacy against Trichostrongylus colubriformis in cattle. Format: in vivo. The following applies: 10 mg/kg, oral, single treatment 32 days after infection, necropsy 7 days after treatment. The protocol: (§1) Anthelmintic effects of compounds of this invention were tested in vivo using Haemonchus contortus and Trichostrongylus colubriformis in cattle. The cattle were orally infected with approximately 10,000 third-stage larvae of Haemonchus contortus and approximately 30,000 third-stage larvae of Trichostrongylus colubriformis. Thirty-two days after infection, the cattle in the treatment group were treated once orally with the compound of Example 11 at a dose of 10 mg/kg bodyweight. Seven days after treatment, the cattle were necropsied, and the worm burden in the abomasum and the small intestine was determined. The efficacy was defined as the reduction of the mean worm count in the infected cattle of the treatment group in comparison to the infected cattle in the untreated negative control group.

Experiment [5] concerns Haemonchus contortus. Nature of the experiment: Efficacy against Haemonchus contortus in cattle. Format: in vivo. The settings on record: 10 mg/kg, oral, single treatment 32 days after infection, necropsy 7 days after treatment. The protocol: as §1

As for `O=C(CO[C@H]1CC[C@H](Nc2ccc([N+](=O)[O-])c(C(F)(F)F)c2)CC1)N1CCN(c2ccc(C(F)(F)F)cc2)CC1` [Example 11, 2-[trans-4-(4-nitro-3-trifluoromethyl-phenylamino)-cyclohexyloxy]-1-[4-(4-trifluoromethyl-phenyl)-piperazin-1-yl]-ethanone], the “% Reduction in H. contortus count” value in the experiment with Haemonchus contortus [1] (2 mg/kg) is reported as 0%; with Haemonchus contortus [1] (5 mg/kg), 95%; in the experiment on Haemonchus contortus [1] (10 mg/kg), 100%; in the experiment with Haemonchus contortus [3] (2 mg/kg, oral), 84%; with Haemonchus contortus [3] (2 mg/kg, subcutaneous), 69%; in the experiment with Haemonchus contortus [3] (50 mg/kg, oral), 98%. Moreover, the “% Reduction in H. contortus count” value with Haemonchus contortus [3] (50 mg/kg, subcutaneous) is listed as 99%. Moreover, the “activity against the resistant isolate compared with the sensitive isolate of Haemonchus contortus” value in experiment [2] is “same activity”. The “Efficacy against T. colubriformis (reduction of the mean worm count)” value in experiment [4] is on record as 99%. For the same compound, in the experiment on Haemonchus contortus [5], the “Efficacy against H. contortus (reduction of the mean worm count)” value was determined as 98%.
